Laboratory results reported in patent publication US7635572B2, “Methods for conducting assays for enzyme activity on protein microarrays” (Life Technologies Corporation, priority 2004, dated 2009).

These molecules were tested against plurality of kinases (Table 5) (Homo sapiens, UniProt P06241) (assay: Further analysis of a plurality of inhibitors and a plurality of kinases on microarray (Example IX, Table 5)). Details: not given.
Assay type: biochemical
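Note: inhibition of each kinase by the inhibitors is given as a qualitative level.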
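Throughout, for Inhibition level, FGFR2: level 0 none or unclear then 1 little or marginal then 2 substantial inhibition.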
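Throughout, for Inhibition level, FYN: level 0 no or unclear inhibition to Level 2 substantial inhibition.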
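Throughout, for Inhibition level, STK13: level 0 no or unclear inhibition to Level 2 substantial inhibition.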
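Throughout, for Inhibition level, STK6: level 0 no or unclear inhibition to Level 2 substantial inhibition.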

Chain of plurality of kinases (Table 5) (Homo sapiens, UniProt P06241) (P06241 whole entry): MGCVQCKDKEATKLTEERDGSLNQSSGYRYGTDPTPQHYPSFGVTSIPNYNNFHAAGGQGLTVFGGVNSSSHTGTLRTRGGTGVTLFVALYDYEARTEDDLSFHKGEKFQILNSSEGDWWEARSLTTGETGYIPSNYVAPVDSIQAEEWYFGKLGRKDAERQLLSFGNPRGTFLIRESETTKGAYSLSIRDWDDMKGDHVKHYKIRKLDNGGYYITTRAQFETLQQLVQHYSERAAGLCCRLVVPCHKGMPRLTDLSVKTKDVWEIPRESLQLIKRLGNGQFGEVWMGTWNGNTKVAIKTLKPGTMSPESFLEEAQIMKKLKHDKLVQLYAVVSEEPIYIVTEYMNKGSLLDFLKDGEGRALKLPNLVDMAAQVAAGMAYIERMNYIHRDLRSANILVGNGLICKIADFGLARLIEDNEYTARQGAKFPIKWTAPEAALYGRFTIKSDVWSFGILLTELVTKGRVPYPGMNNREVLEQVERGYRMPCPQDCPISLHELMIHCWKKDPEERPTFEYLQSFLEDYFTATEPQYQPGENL

Structure (SMILES)	Inhibition level, FYN
CN[C@@H]1C[C@H]2O[C@@](C)([C@@H]1OC)n1c3ccccc3c3c4c(c5c6ccccc6n2c5c31)C(=O)NC4 [Staurosporine]	2

Same assay, conditions: plate A4, Domain 0; Genistein <3.7 mM

Structure (SMILES)	Inhibition level, FYN
O=c1c(-c2ccc(O)cc2)coc2cc(O)cc(O)c12 [Genistein]	1

Same assay, conditions: plate A4, Domain 0; Ro-31-8220 90 uM

Structure (SMILES)	Inhibition level, FYN
Cn1cc(C2=C(c3cn(CCCSC(=N)N)c4ccccc34)C(=O)NC2=O)c2ccccc21 [Ro-31-8220]	0

Same assay, conditions: plate A4, Domain 0; inhibitor 100 uM

Structure (SMILES)	Inhibition level, FYN
N#C/C(=C/c1ccc(O)c(O)c1)C(=O)NCc1ccccc1 [AG 490]	2
O=c1c(-c2ccc(O)cc2)coc2cc(O)cc(O)c12 [Genistein]	2
Cn1cc(C2=C(c3cn(CCCSC(=N)N)c4ccccc34)C(=O)NC2=O)c2ccccc21 [Ro-31-8220]	2

What follows are molecules tested against plurality of kinases (Table 5) (Homo sapiens, UniProt P07949) in the same assay as above. Details: plate B7; Genistein, conc. not given.
Assay type: biochemical

Chain of plurality of kinases (Table 5) (Homo sapiens, UniProt P07949) (P07949 29-1114): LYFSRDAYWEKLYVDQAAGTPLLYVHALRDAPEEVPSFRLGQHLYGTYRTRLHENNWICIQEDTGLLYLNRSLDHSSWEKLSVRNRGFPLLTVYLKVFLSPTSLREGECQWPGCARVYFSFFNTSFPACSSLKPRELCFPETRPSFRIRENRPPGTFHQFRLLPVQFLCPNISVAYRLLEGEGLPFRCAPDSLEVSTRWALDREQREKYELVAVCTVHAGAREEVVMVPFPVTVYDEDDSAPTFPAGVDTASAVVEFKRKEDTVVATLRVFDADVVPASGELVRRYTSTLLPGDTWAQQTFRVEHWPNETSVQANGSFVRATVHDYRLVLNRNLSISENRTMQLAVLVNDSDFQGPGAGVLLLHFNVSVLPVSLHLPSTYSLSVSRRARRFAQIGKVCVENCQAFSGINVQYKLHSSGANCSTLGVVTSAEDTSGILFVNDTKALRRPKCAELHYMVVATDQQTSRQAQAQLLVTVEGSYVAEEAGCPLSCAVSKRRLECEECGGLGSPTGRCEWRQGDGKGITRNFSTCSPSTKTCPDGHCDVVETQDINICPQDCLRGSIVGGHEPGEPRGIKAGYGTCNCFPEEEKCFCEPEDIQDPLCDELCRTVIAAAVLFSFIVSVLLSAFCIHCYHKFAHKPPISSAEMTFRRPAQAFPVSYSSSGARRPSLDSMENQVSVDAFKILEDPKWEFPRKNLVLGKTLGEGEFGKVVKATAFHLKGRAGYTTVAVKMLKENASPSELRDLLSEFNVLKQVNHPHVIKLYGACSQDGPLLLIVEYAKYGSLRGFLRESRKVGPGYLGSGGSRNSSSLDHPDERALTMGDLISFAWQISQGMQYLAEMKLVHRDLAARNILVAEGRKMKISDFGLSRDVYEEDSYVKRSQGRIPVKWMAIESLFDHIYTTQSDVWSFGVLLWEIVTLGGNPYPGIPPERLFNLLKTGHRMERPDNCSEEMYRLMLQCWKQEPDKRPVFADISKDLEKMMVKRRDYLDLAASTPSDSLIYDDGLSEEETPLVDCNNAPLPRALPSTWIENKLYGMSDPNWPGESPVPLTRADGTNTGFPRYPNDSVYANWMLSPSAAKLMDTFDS

Structure (SMILES)	Inhibition level, RET
O=c1c(-c2ccc(O)cc2)coc2cc(O)cc(O)c12 [Genistein]	0

Same assay, conditions: plate B7; Ro-31-8220, conc. not given

Structure (SMILES)	Inhibition level, RET
Cn1cc(C2=C(c3cn(CCCSC(=N)N)c4ccccc34)C(=O)NC2=O)c2ccccc21 [Ro-31-8220]	2

Same assay, conditions: plate B7; inhibitor 100 uM

Structure (SMILES)	Inhibition level, RET
N#C/C(=C/c1ccc(O)c(O)c1)C(=O)NCc1ccccc1 [AG 490]	2
O=c1c(-c2ccc(O)cc2)coc2cc(O)cc(O)c12 [Genistein]	2
Cn1cc(C2=C(c3cn(CCCSC(=N)N)c4ccccc34)C(=O)NC2=O)c2ccccc21 [Ro-31-8220]	0

Each molecule was assayed against plurality of kinases (Table 5) (Homo sapiens, UniProt P21802) in the same assay as above. Details: plate B4; Genistein, conc. not given.
Assay type: biochemical

Chain of plurality of kinases (Table 5) (Homo sapiens, UniProt P21802) (P21802 22-821): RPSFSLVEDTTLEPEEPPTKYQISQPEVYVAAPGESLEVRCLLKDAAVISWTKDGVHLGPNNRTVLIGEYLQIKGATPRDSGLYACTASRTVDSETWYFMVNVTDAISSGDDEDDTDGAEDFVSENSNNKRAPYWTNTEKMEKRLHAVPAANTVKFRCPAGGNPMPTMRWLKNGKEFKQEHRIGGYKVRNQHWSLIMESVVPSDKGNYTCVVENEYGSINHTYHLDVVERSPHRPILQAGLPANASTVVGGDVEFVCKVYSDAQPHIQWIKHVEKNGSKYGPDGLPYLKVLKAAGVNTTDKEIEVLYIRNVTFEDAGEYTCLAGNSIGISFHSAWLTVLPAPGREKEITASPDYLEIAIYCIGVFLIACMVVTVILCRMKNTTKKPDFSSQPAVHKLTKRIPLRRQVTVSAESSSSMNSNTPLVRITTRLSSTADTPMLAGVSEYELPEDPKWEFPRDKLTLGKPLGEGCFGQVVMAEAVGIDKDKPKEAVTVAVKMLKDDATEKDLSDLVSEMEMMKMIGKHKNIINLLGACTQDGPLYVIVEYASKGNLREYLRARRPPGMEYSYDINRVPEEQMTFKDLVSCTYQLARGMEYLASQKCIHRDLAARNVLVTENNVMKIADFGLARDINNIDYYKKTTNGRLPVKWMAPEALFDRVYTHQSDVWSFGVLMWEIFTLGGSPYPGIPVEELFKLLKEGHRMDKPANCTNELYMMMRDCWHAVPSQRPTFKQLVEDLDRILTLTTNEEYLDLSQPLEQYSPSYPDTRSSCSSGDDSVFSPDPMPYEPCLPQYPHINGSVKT

Structure (SMILES)	Inhibition level, FGFR2
O=c1c(-c2ccc(O)cc2)coc2cc(O)cc(O)c12 [Genistein]	1

Same assay, conditions: plate B4; Ro-31-8220, conc. not given

Structure (SMILES)	Inhibition level, FGFR2
Cn1cc(C2=C(c3cn(CCCSC(=N)N)c4ccccc34)C(=O)NC2=O)c2ccccc21 [Ro-31-8220]	0

Same assay, conditions: plate B4; inhibitor 100 uM

Structure (SMILES)	Inhibition level, FGFR2
N#C/C(=C/c1ccc(O)c(O)c1)C(=O)NCc1ccccc1 [AG 490]	2
O=c1c(-c2ccc(O)cc2)coc2cc(O)cc(O)c12 [Genistein]	2
Cn1cc(C2=C(c3cn(CCCSC(=N)N)c4ccccc34)C(=O)NC2=O)c2ccccc21 [Ro-31-8220]	2

Same assay, conditions: plate G8; Genistein <3.7 mM

Structure (SMILES)	Inhibition level, FGFR2
O=c1c(-c2ccc(O)cc2)coc2cc(O)cc(O)c12 [Genistein]	0

Same assay, conditions: plate G8; Ro-31-8220 90 uM

Structure (SMILES)	Inhibition level, FGFR2
Cn1cc(C2=C(c3cn(CCCSC(=N)N)c4ccccc34)C(=O)NC2=O)c2ccccc21 [Ro-31-8220]	2

Same assay, conditions: plate G8; inhibitor 100 uM

Structure (SMILES)	Inhibition level, FGFR2
N#C/C(=C/c1ccc(O)c(O)c1)C(=O)NCc1ccccc1 [AG 490]	2
O=c1c(-c2ccc(O)cc2)coc2cc(O)cc(O)c12 [Genistein]	2
Cn1cc(C2=C(c3cn(CCCSC(=N)N)c4ccccc34)C(=O)NC2=O)c2ccccc21 [Ro-31-8220]	2

These molecules were tested against T1, plurality of kinases (Table 5) (Homo sapiens, UniProt Q9UQB9) in the same assay as above. Details: plate G11; inhibitor 100 uM.
T1 sequence (Q9UQB9 1-309): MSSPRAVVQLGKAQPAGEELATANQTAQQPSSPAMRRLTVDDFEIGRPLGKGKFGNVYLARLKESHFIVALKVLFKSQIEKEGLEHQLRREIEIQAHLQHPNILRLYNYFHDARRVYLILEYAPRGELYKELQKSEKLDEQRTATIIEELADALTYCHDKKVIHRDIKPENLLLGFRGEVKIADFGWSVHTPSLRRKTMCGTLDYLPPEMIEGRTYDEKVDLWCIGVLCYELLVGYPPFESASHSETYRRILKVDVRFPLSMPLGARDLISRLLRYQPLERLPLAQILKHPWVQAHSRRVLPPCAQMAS
Assay type: biochemical

Structure (SMILES)	Inhibition level, STK13
N#C/C(=C/c1ccc(O)c(O)c1)C(=O)NCc1ccccc1 [AG 490]	2
O=c1c(-c2ccc(O)cc2)coc2cc(O)cc(O)c12 [Genistein]	2
Cn1cc(C2=C(c3cn(CCCSC(=N)N)c4ccccc34)C(=O)NC2=O)c2ccccc21 [Ro-31-8220]	2

Each molecule was assayed against plurality of kinases (Table 5) (Homo sapiens, UniProt P00519) in the same assay as above. Details: plate B6; Genistein, conc. not given.
Assay type: biochemical

Chain of plurality of kinases (Table 5) (Homo sapiens, UniProt P00519) (P00519 whole entry): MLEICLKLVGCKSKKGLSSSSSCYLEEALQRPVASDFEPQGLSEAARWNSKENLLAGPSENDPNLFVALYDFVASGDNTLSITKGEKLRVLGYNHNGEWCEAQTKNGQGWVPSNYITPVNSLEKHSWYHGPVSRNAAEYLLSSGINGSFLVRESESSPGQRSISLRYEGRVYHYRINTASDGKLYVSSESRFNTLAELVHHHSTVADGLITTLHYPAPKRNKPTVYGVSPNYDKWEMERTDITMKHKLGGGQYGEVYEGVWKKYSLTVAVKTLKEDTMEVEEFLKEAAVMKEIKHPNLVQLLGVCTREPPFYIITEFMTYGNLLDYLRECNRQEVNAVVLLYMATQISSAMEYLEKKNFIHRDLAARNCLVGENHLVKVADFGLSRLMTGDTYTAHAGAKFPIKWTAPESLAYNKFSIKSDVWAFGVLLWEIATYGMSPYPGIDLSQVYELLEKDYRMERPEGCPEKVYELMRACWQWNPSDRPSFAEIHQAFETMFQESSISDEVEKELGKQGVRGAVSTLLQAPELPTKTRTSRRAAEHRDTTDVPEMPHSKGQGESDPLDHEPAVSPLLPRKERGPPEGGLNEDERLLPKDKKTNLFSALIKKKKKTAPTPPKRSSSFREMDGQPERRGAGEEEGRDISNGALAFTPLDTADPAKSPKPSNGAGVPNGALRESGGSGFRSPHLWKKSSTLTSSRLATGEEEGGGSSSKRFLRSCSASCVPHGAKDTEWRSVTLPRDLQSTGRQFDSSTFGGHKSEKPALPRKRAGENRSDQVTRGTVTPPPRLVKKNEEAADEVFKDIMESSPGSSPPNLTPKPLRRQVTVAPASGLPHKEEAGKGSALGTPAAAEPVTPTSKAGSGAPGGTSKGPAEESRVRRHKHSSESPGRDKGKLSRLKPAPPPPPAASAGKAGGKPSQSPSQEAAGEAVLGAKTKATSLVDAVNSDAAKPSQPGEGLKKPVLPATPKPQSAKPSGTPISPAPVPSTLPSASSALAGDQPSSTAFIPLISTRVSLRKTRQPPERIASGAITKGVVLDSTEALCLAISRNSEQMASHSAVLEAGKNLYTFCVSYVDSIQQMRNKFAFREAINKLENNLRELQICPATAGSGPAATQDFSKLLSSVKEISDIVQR

Structure (SMILES)	Inhibition level, ABL1
O=c1c(-c2ccc(O)cc2)coc2cc(O)cc(O)c12 [Genistein]	0

Same assay, conditions: plate B6; Ro-31-8220, conc. not given

Structure (SMILES)	Inhibition level, ABL1
Cn1cc(C2=C(c3cn(CCCSC(=N)N)c4ccccc34)C(=O)NC2=O)c2ccccc21 [Ro-31-8220]	0

Same assay, conditions: plate B6; inhibitor 100 uM

Structure (SMILES)	Inhibition level, ABL1
N#C/C(=C/c1ccc(O)c(O)c1)C(=O)NCc1ccccc1 [AG 490]	0
O=c1c(-c2ccc(O)cc2)coc2cc(O)cc(O)c12 [Genistein]	0
Cn1cc(C2=C(c3cn(CCCSC(=N)N)c4ccccc34)C(=O)NC2=O)c2ccccc21 [Ro-31-8220]	2

The molecules below were run against plurality of kinases (Table 5) (Homo sapiens, UniProt O75914) in the same assay as above. Details: plate D4; Genistein, conc. not given.
Assay type: biochemical

Chain of plurality of kinases (Table 5) (Homo sapiens, UniProt O75914) (O75914 whole entry): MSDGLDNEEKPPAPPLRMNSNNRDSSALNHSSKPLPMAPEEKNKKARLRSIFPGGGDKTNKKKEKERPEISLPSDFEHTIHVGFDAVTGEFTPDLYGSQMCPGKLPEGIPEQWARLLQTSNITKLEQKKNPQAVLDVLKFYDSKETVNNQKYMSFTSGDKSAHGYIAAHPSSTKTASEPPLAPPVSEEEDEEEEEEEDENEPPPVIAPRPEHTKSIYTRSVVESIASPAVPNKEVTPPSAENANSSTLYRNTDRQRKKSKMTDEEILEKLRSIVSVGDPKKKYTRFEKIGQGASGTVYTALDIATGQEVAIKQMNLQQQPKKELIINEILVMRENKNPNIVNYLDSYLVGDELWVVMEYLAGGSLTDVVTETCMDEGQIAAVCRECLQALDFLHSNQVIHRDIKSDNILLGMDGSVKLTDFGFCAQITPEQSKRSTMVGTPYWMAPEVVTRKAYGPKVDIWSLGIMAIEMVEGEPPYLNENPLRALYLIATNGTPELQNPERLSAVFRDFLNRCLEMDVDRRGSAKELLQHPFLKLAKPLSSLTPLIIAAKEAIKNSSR

Structure (SMILES)	Inhibition level, PAK3
O=c1c(-c2ccc(O)cc2)coc2cc(O)cc(O)c12 [Genistein]	0

Same assay, conditions: plate D4; Ro-31-8220, conc. not given

Structure (SMILES)	Inhibition level, PAK3
Cn1cc(C2=C(c3cn(CCCSC(=N)N)c4ccccc34)C(=O)NC2=O)c2ccccc21 [Ro-31-8220]	2

Same assay, conditions: plate D4; inhibitor 100 uM

Structure (SMILES)	Inhibition level, PAK3
N#C/C(=C/c1ccc(O)c(O)c1)C(=O)NCc1ccccc1 [AG 490]	1
O=c1c(-c2ccc(O)cc2)coc2cc(O)cc(O)c12 [Genistein]	2
Cn1cc(C2=C(c3cn(CCCSC(=N)N)c4ccccc34)C(=O)NC2=O)c2ccccc21 [Ro-31-8220]	2

The molecules below were run against T2, plurality of kinases (Table 5) (Homo sapiens, UniProt P29323) in the same assay as above. Details: plate E5; Genistein <3.7 mM.
T2 sequence (P29323 19-1055): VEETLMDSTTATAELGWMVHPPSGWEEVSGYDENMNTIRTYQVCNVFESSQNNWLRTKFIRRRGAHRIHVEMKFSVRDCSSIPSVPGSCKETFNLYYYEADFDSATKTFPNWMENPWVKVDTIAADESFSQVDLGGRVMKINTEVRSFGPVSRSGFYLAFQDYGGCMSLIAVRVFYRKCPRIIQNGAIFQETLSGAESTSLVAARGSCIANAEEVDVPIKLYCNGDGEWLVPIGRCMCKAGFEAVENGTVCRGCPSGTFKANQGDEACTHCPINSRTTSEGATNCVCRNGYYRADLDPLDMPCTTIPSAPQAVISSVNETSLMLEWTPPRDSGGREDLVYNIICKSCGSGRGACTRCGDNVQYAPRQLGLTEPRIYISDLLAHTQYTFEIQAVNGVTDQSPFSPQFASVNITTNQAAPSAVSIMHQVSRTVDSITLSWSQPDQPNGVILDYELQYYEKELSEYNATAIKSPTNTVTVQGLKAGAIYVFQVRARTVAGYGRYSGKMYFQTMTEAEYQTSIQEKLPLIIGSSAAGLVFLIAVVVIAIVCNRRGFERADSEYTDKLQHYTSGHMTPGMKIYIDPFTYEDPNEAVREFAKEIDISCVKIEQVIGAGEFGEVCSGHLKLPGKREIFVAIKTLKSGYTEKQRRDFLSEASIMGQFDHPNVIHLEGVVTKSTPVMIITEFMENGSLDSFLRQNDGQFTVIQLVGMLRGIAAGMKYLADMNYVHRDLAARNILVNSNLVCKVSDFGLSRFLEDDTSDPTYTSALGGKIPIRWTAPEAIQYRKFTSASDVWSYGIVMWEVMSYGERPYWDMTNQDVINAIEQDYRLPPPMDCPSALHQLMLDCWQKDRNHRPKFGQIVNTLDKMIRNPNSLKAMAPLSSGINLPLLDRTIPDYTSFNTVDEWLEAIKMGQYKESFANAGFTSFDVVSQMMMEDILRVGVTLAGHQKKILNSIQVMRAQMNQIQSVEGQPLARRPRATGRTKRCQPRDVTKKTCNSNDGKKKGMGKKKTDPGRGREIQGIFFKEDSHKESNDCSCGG
Assay type: biochemical

Structure (SMILES)	Inhibition level, EPHB2
O=c1c(-c2ccc(O)cc2)coc2cc(O)cc(O)c12 [Genistein]	0

Same assay, conditions: plate E5; Ro-31-8220 90 uM

Structure (SMILES)	Inhibition level, EPHB2
Cn1cc(C2=C(c3cn(CCCSC(=N)N)c4ccccc34)C(=O)NC2=O)c2ccccc21 [Ro-31-8220]	0

Same assay, conditions: plate E5; inhibitor 100 uM

Structure (SMILES)	Inhibition level, EPHB2
N#C/C(=C/c1ccc(O)c(O)c1)C(=O)NCc1ccccc1 [AG 490]	2
O=c1c(-c2ccc(O)cc2)coc2cc(O)cc(O)c12 [Genistein]	2
Cn1cc(C2=C(c3cn(CCCSC(=N)N)c4ccccc34)C(=O)NC2=O)c2ccccc21 [Ro-31-8220]	2

What follows are molecules tested against T3, plurality of kinases (Table 5) (Homo sapiens, UniProt O14965) in the same assay as above. Details: plate C6; Genistein <3.7 mM.
T3 sequence (O14965 1-403): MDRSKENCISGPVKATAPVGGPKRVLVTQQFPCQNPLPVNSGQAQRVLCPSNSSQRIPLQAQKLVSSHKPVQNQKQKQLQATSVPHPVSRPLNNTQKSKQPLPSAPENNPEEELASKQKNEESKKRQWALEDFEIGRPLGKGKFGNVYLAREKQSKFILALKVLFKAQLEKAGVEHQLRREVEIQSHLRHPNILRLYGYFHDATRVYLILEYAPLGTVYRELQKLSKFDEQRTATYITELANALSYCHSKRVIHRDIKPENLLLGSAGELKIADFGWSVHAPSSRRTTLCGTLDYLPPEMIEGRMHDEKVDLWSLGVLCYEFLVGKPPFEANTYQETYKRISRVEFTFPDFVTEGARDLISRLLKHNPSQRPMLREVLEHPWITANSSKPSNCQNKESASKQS
Assay type: biochemical

Structure (SMILES)	Inhibition level, STK6
O=c1c(-c2ccc(O)cc2)coc2cc(O)cc(O)c12 [Genistein]	0

Same assay, conditions: plate C6; Ro-31-8220 90 uM

Structure (SMILES)	Inhibition level, STK6
Cn1cc(C2=C(c3cn(CCCSC(=N)N)c4ccccc34)C(=O)NC2=O)c2ccccc21 [Ro-31-8220]	0

Same assay, conditions: plate C6; Staurosporine 21.5 uM

Structure (SMILES)	Inhibition level, STK6
CN[C@@H]1C[C@H]2O[C@@](C)([C@@H]1OC)n1c3ccccc3c3c4c(c5c6ccccc6n2c5c31)C(=O)NC4 [Staurosporine]	0

Same assay, conditions: plate C6; inhibitor 100 uM

Structure (SMILES)	Inhibition level, STK6
N#C/C(=C/c1ccc(O)c(O)c1)C(=O)NCc1ccccc1 [AG 490]	2
O=c1c(-c2ccc(O)cc2)coc2cc(O)cc(O)c12 [Genistein]	2
Cn1cc(C2=C(c3cn(CCCSC(=N)N)c4ccccc34)C(=O)NC2=O)c2ccccc21 [Ro-31-8220]	2

What follows are molecules tested against plurality of kinases (Table 5) (Homo sapiens, UniProt Q00536) in the same assay as above. Details: plate A3; inhibitor 100 uM.
Assay type: biochemical

Chain of plurality of kinases (Table 5) (Homo sapiens, UniProt Q00536) (Q00536 whole entry): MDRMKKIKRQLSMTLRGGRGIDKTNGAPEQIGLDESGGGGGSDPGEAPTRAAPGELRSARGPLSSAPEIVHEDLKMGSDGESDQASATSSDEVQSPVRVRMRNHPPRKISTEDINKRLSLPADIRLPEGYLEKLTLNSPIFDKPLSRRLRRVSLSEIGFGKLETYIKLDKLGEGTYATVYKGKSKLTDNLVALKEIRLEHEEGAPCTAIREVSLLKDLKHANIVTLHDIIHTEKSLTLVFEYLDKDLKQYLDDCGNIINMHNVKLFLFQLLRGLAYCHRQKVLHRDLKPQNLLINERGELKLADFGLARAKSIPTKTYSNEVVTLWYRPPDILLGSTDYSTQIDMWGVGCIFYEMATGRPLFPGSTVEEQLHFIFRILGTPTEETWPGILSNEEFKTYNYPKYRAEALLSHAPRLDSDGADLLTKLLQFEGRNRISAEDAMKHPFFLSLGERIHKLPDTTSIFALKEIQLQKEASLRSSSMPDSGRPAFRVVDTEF

Structure (SMILES)	Inhibition level, PCTK1
N#C/C(=C/c1ccc(O)c(O)c1)C(=O)NCc1ccccc1 [AG 490]	0
O=c1c(-c2ccc(O)cc2)coc2cc(O)cc(O)c12 [Genistein]	1
Cn1cc(C2=C(c3cn(CCCSC(=N)N)c4ccccc34)C(=O)NC2=O)c2ccccc21 [Ro-31-8220]	0
